Test results from PubChem BioAssay (NCI).
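How tested: cells in 96-well plates exposed to compound for 48 hours at five concentrations. TGI is the concentration that stops growth completely.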

Key:
Assay in all cases: growth of human tumour cells (NCI), 48 h
MALME-3M melanoma = system: MALME-3M melanoma
DU-145 prostate = system: DU-145 prostate
HOP-92 NSCLC = system: HOP-92 NSCLC
TK-10 renal = system: TK-10 renal
KM12 colon = system: KM12 colon
PC-3 prostate = system: PC-3 prostate
COLO 205 colon = system: COLO 205 colon
HOP-62 NSCLC = system: HOP-62 NSCLC
NCI-H460 lung = system: NCI-H460 lung
EKVX NSCLC = system: EKVX NSCLC
SNB-75 CNS = system: SNB-75 CNS
OVCAR-8 ovarian = system: OVCAR-8 ovarian
HCT-15 colon = system: HCT-15 colon
OVCAR-5 ovarian = system: OVCAR-5 ovarian
NCI/ADR-RES ovarian = system: NCI/ADR-RES ovarian
K-562 leukemia = system: K-562 leukemia
ACHN renal = system: ACHN renal
SF-539 CNS = system: SF-539 CNS
MCF7 breast = system: MCF7 breast
HCC-2998 colon = system: HCC-2998 colon
SF-268 CNS = system: SF-268 CNS
U251 CNS = system: U251 CNS
HCT-116 colon = system: HCT-116 colon
SK-MEL-28 melanoma = system: SK-MEL-28 melanoma
OVCAR-3 ovarian = system: OVCAR-3 ovarian
CCRF-CEM leukemia = system: CCRF-CEM leukemia
SR leukemia = system: SR leukemia
A498 renal = system: A498 renal
MDA-N = system: MDA-N
LOX IMVI melanoma = system: LOX IMVI melanoma
T-47D breast = system: T-47D breast
NCI-H23 lung = system: NCI-H23 lung
RXF 393 renal = system: RXF 393 renal
HT29 colon = system: HT29 colon
BT-549 breast = system: BT-549 breast
RPMI-8226 leukemia = system: RPMI-8226 leukemia
NCI-H522 lung = system: NCI-H522 lung
M14 melanoma = system: M14 melanoma
UACC-257 melanoma = system: UACC-257 melanoma
CAKI-1 renal = system: CAKI-1 renal
SNB-19 CNS = system: SNB-19 CNS
SK-OV-3 ovarian = system: SK-OV-3 ovarian
786-0 renal = system: 786-0 renal
HS 578T breast = system: HS 578T breast
UO-31 renal = system: UO-31 renal
SK-MEL-2 melanoma = system: SK-MEL-2 melanoma
A549 NSCLC = system: A549 NSCLC
SK-MEL-5 melanoma = system: SK-MEL-5 melanoma
MDA-MB-435 = system: MDA-MB-435
IGROV1 ovarian = system: IGROV1 ovarian
OVCAR-4 ovarian = system: OVCAR-4 ovarian
SN12C renal = system: SN12C renal
HL-60(TB) leukemia = system: HL-60(TB) leukemia
SF-295 CNS = system: SF-295 CNS
MDA-MB-231 breast = system: MDA-MB-231 breast
NCI-H226 lung = system: NCI-H226 lung
SW-620 colon = system: SW-620 colon
UACC-62 melanoma = system: UACC-62 melanoma

N#C/C(=C/N1C(=O)/C(=C/c2ccc([N+](=O)[O-])cc2)SC1=S)c1nc2ccccc2s1
TGI (MALME-3M melanoma): 73.3 µM
TGI (DU-145 prostate): > 100 µM
TGI (HOP-92 NSCLC): 63.3 µM
TGI (TK-10 renal): 66.9 µM
TGI (KM12 colon): > 100 µM
TGI (PC-3 prostate): 40.4 µM
TGI (COLO 205 colon): 30 µM
TGI (HOP-62 NSCLC): 7.32 µM
TGI (NCI-H460 lung): 43.8 µM
TGI (EKVX NSCLC): 61.4 µM
TGI (SNB-75 CNS): 69.2 µM
TGI (OVCAR-8 ovarian): > 100 µM
TGI (HCT-15 colon): > 100 µM
TGI (OVCAR-5 ovarian): 80.8 µM
TGI (NCI/ADR-RES ovarian): > 100 µM
TGI (K-562 leukemia): > 100 µM
TGI (ACHN renal): 55.3 µM
TGI (SF-539 CNS): > 100 µM
TGI (MCF7 breast): 83.2 µM
TGI (HCC-2998 colon): 29.9 µM
TGI (SF-268 CNS): > 100 µM
TGI (U251 CNS): 41.7 µM
TGI (HCT-116 colon): 32.7 µM
TGI (SK-MEL-28 melanoma): > 100 µM
TGI (OVCAR-3 ovarian): 15.9 µM
TGI (CCRF-CEM leukemia): > 100 µM
TGI (SR leukemia): > 100 µM
TGI (A498 renal): 33.2 µM
TGI (MDA-N): > 100 µM
TGI (LOX IMVI melanoma): > 100 µM
TGI (T-47D breast): 69.5 µM
TGI (NCI-H23 lung): 89.1 µM
TGI (RXF 393 renal): 52.6 µM
TGI (HT29 colon): > 100 µM
TGI (BT-549 breast): 73.7 µM
TGI (RPMI-8226 leukemia): 68.7 µM
TGI (NCI-H522 lung): 53.8 µM
TGI (M14 melanoma): 98.5 µM
TGI (UACC-257 melanoma): 40.5 µM
TGI (CAKI-1 renal): > 100 µM
TGI (SNB-19 CNS): > 100 µM
TGI (SK-OV-3 ovarian): 43.6 µM
TGI (786-0 renal): > 100 µM
TGI (HS 578T breast): > 100 µM
TGI (UO-31 renal): 63.3 µM
TGI (SK-MEL-2 melanoma): 36 µM
TGI (A549 NSCLC): > 100 µM
TGI (SK-MEL-5 melanoma): 26.9 µM
TGI (MDA-MB-435): > 100 µM
TGI (IGROV1 ovarian): > 100 µM
TGI (OVCAR-4 ovarian): > 100 µM
TGI (SN12C renal): 81 µM
TGI (HL-60(TB) leukemia): > 100 µM
TGI (SF-295 CNS): 33.9 µM
TGI (MDA-MB-231 breast): 37 µM
TGI (NCI-H226 lung): 78.4 µM
TGI (SW-620 colon): > 100 µM
TGI (UACC-62 melanoma): 24 µM

CCOC(=O)NC(C(F)(F)F)(C(F)(F)F)P(=O)(OCC(C)C)OCC(C)C
TGI (MALME-3M melanoma): 60.7 µM
TGI (DU-145 prostate): > 100 µM
TGI (HOP-92 NSCLC): 36.7 µM
TGI (TK-10 renal): 65.8 µM
TGI (KM12 colon): > 100 µM
TGI (PC-3 prostate): > 100 µM
TGI (COLO 205 colon): 31 µM
TGI (HOP-62 NSCLC): > 100 µM
TGI (NCI-H460 lung): > 100 µM
TGI (EKVX NSCLC): 74.6 µM
TGI (SNB-75 CNS): 97.1 µM
TGI (OVCAR-8 ovarian): 31.4 µM
TGI (HCT-15 colon): 17.1 µM
TGI (OVCAR-5 ovarian): 58.7 µM
TGI (NCI/ADR-RES ovarian): 47 µM
TGI (K-562 leukemia): > 100 µM
TGI (ACHN renal): 52.8 µM
TGI (SF-539 CNS): 48.8 µM
TGI (MCF7 breast): 21.1 µM
TGI (HCC-2998 colon): > 100 µM
TGI (SF-268 CNS): 57.3 µM
TGI (U251 CNS): > 100 µM
TGI (HCT-116 colon): 16.6 µM
TGI (SK-MEL-28 melanoma): 54.2 µM
TGI (OVCAR-3 ovarian): 64 µM
TGI (CCRF-CEM leukemia): > 100 µM
TGI (SR leukemia): > 100 µM
TGI (A498 renal): > 100 µM
TGI (MDA-N): 27.1 µM
TGI (LOX IMVI melanoma): 20.6 µM
TGI (T-47D breast): > 100 µM
TGI (RXF 393 renal): 24.5 µM
TGI (HT29 colon): 33.8 µM
TGI (BT-549 breast): 29 µM
TGI (RPMI-8226 leukemia): > 100 µM
TGI (NCI-H522 lung): 11.6 µM
TGI (M14 melanoma): 26.1 µM
TGI (CAKI-1 renal): > 100 µM
TGI (SNB-19 CNS): > 100 µM
TGI (SK-OV-3 ovarian): 66.9 µM
TGI (HS 578T breast): 56.5 µM
TGI (UO-31 renal): 30.3 µM
TGI (SK-MEL-2 melanoma): 43 µM
TGI (A549 NSCLC): > 100 µM
TGI (SK-MEL-5 melanoma): 24.9 µM
TGI (MDA-MB-435): > 100 µM
TGI (IGROV1 ovarian): 51.5 µM
TGI (SN12C renal): 49 µM
TGI (HL-60(TB) leukemia): 22.4 µM
TGI (SF-295 CNS): > 100 µM
TGI (MDA-MB-231 breast): 39 µM
TGI (NCI-H226 lung): 32.6 µM
TGI (SW-620 colon): 17.2 µM
TGI (UACC-62 melanoma): 29.4 µM
